We go through four compounds from patent publication US9102582B2, “Method of producing alcohols” (priority 2009, dated 2015).

A short description of one data set: solubility in water. The note with it: same solubility expressed in moles.
The conditions of data set [1]: cited from earlier work.

With `CCBr` [ethyl bromide], the “solubility in water (molar)” value in “solubility in water” is 0.0835 moles per 1000 ml of water. The solubility in water in data set [1] is given as 0.91 grams per 100 ml of water.

Take `CBr` [methyl bromide]: the “solubility in water (molar)” value in the data set “solubility in water” is 0.0094 moles per 1000 ml of water. The solubility in water in data set [1] is 0.09 grams per 100 ml of water.

Consider `COC(=O)c1ccccc1` [methyl benzoate], for which, in the data set “solubility in water”, the “solubility in water (molar)” value is reported as 0.001532 moles per 1000 ml of water. Besides, in data set [1], the solubility in water is given as 0.157 grams per 100 ml of water.

In the case of `CCCC(=O)OCC` [ethyl butyrate], the “solubility in water (molar)” value in the data set “solubility in water” is reported as 0.059 moles per 1000 ml of water. Besides, in data set [1], the solubility in water is 0.68 grams per 100 ml of water.
